# Reference: ChEMBL document CHEMBL1201862, “PubChem BioAssay data set” (2004)
# The source made the active and inactive calls.
# Columns and labels:
# [1] = biological target: Induced myeloid leukemia cell differentiation protein Mcl-1 (Homo sapiens, UniProt Q07820); format: functional
# [2] = biological target: T1, Mannose-6-phosphate isomerase (Homo sapiens, UniProt P34949); experiment: human PMI inhibitors, high substrate, primary screen, biochemical, fluorescence intensity, high mannose 6-phosphate (AID 1220)
# T1 sequence (P34949 whole entry): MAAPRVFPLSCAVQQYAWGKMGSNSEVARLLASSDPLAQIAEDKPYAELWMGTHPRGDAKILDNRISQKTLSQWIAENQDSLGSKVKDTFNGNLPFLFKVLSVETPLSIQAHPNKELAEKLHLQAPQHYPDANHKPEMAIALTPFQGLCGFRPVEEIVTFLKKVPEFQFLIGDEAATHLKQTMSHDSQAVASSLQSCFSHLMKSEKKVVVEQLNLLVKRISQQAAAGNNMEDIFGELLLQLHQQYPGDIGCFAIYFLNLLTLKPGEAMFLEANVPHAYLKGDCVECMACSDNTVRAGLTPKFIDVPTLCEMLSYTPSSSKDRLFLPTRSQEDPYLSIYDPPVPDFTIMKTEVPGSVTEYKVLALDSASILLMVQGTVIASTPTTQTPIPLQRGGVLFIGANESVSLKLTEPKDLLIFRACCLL
# [3] = biological target: DNA dC->dU-editing enzyme APOBEC-3A (Homo sapiens, UniProt P31941); experiment: APOBEC3A DNA deaminase inhibitors, dose response, biochemical (AID 504722); format: functional
# [4] = biological target: Glucose-6-phosphate 1-dehydrogenase (Homo sapiens, UniProt P11413); experiment: human G6PD enzyme inhibitors, dose response, selectivity assay for P. falciparum G6PD inhibitor project, biochemical, fluorescence (AID 504792); format: functional
# [5] = biological target: DNA dC->dU-editing enzyme APOBEC-3G (Homo sapiens, UniProt Q9HC16); experiment: Dose Response confirmation of small molecule APOBEC3G DNA Deaminase Inhibitors via a fluorescence-based single-stranded DNA deaminase assay. [Related pubchem assays (depositor defined):AID493012, AID493028]; format: functional
# Hexokinase HKDC1 = biological target: T2, Hexokinase HKDC1 (Homo sapiens, UniProt Q2TB90); experiment: HKDC1 hexokinase inhibitors, dose response, biochemical, W721R variant (AID 504729); format: functional
# T2 sequence (Q2TB90 whole entry): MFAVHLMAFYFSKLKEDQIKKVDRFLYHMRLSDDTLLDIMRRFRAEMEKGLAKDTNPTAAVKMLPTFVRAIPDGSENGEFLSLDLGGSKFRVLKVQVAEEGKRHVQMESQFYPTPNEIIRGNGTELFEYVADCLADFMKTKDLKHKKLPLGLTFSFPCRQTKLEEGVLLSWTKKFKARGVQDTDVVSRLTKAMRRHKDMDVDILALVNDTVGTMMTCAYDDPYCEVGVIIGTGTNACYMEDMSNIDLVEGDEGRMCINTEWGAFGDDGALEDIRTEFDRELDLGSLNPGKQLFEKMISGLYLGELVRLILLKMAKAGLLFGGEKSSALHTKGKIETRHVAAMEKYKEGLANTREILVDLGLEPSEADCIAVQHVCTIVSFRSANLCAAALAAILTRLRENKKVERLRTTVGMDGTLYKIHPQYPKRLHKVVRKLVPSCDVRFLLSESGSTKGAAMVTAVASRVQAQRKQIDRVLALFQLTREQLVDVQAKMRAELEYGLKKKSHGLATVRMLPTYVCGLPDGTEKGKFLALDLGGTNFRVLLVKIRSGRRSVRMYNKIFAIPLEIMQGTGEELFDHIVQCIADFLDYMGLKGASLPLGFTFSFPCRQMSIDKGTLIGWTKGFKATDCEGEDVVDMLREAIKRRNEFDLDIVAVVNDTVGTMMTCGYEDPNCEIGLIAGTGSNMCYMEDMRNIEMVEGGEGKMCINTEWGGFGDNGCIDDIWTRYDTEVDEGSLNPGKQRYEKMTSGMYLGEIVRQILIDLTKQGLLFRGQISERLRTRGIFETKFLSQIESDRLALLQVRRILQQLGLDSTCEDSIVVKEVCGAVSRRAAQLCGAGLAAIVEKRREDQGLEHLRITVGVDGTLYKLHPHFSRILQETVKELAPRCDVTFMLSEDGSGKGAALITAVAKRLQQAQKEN
# [6] = biological target: DNA damage-inducible transcript 3 protein (Mus musculus, UniProt P35639); format: functional, Cricetulus griseus
# [7] = Shn3 3'UTR reporter inhibitors, dose response, cell-based, Clone20 osteoblasts, firefly luciferase, cherry-picked (AID 624132); format: functional;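 note: firefly luciferase luminescence from reporter carrying the Shn3 3'UTR in osteoblasts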
# [8] = HepG2 cell cytotoxicity, dose response, cytotoxicity control for Shn3 inhibitor project, CellTiter-Glo, cherry-picked (AID 624134); format: functional, cell-based
# [9] = control 3'UTR Renilla luciferase suppression, dose response, counter-screen for Shn3 inhibitor project, cell-based, Clone20-Shn3RL, cherry-picked (AID 624133); format: functional
# Paired box protein Pax-8 = Paired box protein Pax-8 (Homo sapiens, UniProt Q06710); experiment: inhibitors of PAX8-driven TPO luciferase reporter, dose response, RMG-I cells, cherry-pick (AID 687027); format: functional, cell-based;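 note: luciferase reporter driven by Pax8 target thyroperoxidase promoter measured by SteadyGlo luminescence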
# Caspase-6 = biological target: T3, Caspase-6 (Homo sapiens, UniProt P55212); experiment: human caspase-6 inhibitors, dose response, biochemical, VEID-R110 fluorescence, cherry-pick (AID 720632)
# T3 sequence (P55212 whole entry): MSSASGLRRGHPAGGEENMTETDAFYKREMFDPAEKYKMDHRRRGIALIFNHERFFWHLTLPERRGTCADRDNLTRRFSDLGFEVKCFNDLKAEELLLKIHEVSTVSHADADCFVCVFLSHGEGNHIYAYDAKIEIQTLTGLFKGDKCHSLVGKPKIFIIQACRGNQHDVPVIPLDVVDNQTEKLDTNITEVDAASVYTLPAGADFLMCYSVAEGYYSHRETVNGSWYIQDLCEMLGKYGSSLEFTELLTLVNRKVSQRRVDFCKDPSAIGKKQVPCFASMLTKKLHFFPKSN
# [10] = inhibitors of PGC1a acetylation in cells, dose response, cell-based, cherry-picked samples (AID 720514); format: functional;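 note: potency may reflect raised or lowered acetylation signal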
# [11] = biological target: Peroxisome proliferator-activated receptor gamma/Nuclear receptor coactivator 1 (Homo sapiens, UniProt P37231); experiment: (§1) TR-FRET dose response biochemical High Throughput Screening assay for agonists of the steroid receptor coactivator 1 (SRC-1) recruitment by the peroxisome proliferator-activated receptor gamma (PPAR gamma): non-selective agonists. [Related pubchem assays (depositor defined):AID1300, AID1808, AID504735, AID631]; format: protein assay
# [12] = biological target: Peroxisome proliferator-activated receptor gamma/Nuclear receptor coactivator 3 (Homo sapiens, UniProt P37231); experiment: as §1, with “3 (SRC-3)” for “1 (SRC-1)”, “assays: 1301 (Confirmation screen.), 1048 (Primary screen.)]” for “assays (depositor defined):AID1300, AID1808, AID504735, AID631]”; format: functional
# [13] = biological target: Peroxisome proliferator-activated receptor gamma/Nuclear receptor coactivator 2 (Homo sapiens, UniProt P37231); experiment: TR-FRET dose response biochemical High Throughput Screening assay for agonists of the steroid receptor coactivator 2 (SRC-2) recruitment by the peroxisome proliferator-activated receptor gamma (PPAR gamma): non-selective agonists. [Related pubchem assays: 1297, 1032 ]; format: functional
# [14] = biological target: Mitogen-activated protein kinase 10 (Homo sapiens, UniProt P53779); experiment: Dose response biochemical screening assay for inhibitors of c-Jun N-Terminal Kinase 3 (JNK3). [Related pubchem assays: 746 ]
# Major prion protein = Major prion protein (Homo sapiens, UniProt P04156); format: functional, cell-based
# [15] = biological target: T4, Heat shock factor protein 1 (Mus musculus, UniProt P38532); experiment: HSF1 potentiators in luciferase reporter cells, confirmation, cell-based, NIH3T3, luminescence, dose retest (AID 435004); format: functional;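 note: stress induced by proteasome inhibitor MG132 added 30 min after compound; luciferase reporter driven by HSF1 response element in NIH3T3 cells; actives raise luminescence as potentiators of the MG132 stress response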
# T4 sequence (P38532 whole entry): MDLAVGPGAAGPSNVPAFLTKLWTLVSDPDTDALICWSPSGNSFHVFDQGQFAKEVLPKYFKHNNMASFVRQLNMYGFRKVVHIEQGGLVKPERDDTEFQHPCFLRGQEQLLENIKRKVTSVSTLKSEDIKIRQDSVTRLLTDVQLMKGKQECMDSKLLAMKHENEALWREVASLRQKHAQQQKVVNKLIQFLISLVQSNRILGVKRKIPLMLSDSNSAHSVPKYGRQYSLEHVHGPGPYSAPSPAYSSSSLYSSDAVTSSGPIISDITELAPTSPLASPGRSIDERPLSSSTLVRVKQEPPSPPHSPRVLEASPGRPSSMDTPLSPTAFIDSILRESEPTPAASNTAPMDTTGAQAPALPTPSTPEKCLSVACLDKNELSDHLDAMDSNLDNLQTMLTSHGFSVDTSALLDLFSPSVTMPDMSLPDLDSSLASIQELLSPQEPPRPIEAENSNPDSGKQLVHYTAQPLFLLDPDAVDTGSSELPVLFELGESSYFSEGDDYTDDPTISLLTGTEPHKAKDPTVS
# [16] = insulin promoter down-regulators in MIN6 cells, imaging, high-content screening, mouse beta cells (AID 1628); format: functional
# [17] = cytotoxicity in MIN6 insulinoma cells, dose response, cytotoxicity control, cell-based, mouse insulinoma (AID 2122); format: functional;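 note: confirmatory high-throughput counterscreen run to flag cytotoxic compounds; mouse MIN-6 beta cells carrying an insulin promoter eGFP reporter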
compound,measurement,setting,value
O=S(=O)(Nc1cc(Sc2nc[nH]n2)c(O)c2ccccc12)c1ccccc1,IC50,[1],11.7 µM (active)
same,IC50,[2],3.32 µM (active)
same,IC50,[3],> 100 µM (inactive)
same,IC50,[4],21.1 µM (inactive)
same,IC50,[5],3.16 µM (active)
same,IC50,Hexokinase HKDC1,9.93 µM (active)
same,Absolute IC50 (CHOP),[6],10 µM
same,AC50,[7],7.55 µM (active)
same,AC50,[8],26.1 µM (active)
same,AC50,[9],12.4 µM (active)
same,AC50,Paired box protein Pax-8,9.52 µM (active)
same,AC50,Caspase-6,0.911 µM (active)
same,AC50,[10],9.88 µM (active)
COc1ccc(Cl)cc1-c1nnc(S)o1,EC50,[11],3.67 µM (active)
same,EC50,[12],> 79.4 µM (not active)
same,EC50,[13],3.4 µM (active)
same,IC50,[14],16.2 µM (not active)
same,IC50,Major prion protein,2.08 µM (active)
same,IC50,cells,> 138 µM (inactive)
Cn1c(=O)cc(SCC(=O)N2CCOCC2)c2ccc(Cl)cc21,EC50,[11],> 79.4 µM (inactive)
same,EC50,[12],> 79.4 µM (not active)
same,EC50,[13],> 79.4 µM (not active)
same,EC50,[15],> 260 µM (inactive)
S=C(NCCC1=CCCCC1)NCc1ccco1,IC50,[16],2.95 µM (active)
same,IC50,[17],2.64 µM (active)
